Measured values as given in ChEMBL document CHEMBL5036347, “Design of the naphthyl-diarylpyrimidines as potent non-nucleoside reverse transcriptase inhibitors (NNRTIs) via structure-based extension into the entrance channel” (Eur J Med Chem, 2021).

Assay: Water solubility of compound at pH 7 at 0.1 to 10 mg by HPLC-UV analysis
Assay type: physicochemical
Settings: dose 0.1-10 mg

SMILES | solubility [µg/mL]
Br.COc1cc2cc(C#N)ccc2c(OC)c1Oc1cc(N)nc(Nc2ccc(C#N)cc2)n1 | < 1
CCNc1cc(Oc2c(OC)cc3cc(C#N)ccc3c2OC)nc(Nc2ccc(C#N)cc2)n1.O=C(O)CC(O)(CC(=O)O)C(=O)O | < 1
COc1cc2cc(C#N)ccc2c(OC)c1Oc1cc(N)nc(Nc2ccc(C#N)cc2)n1.O=CO | < 1
CCNc1cc(Oc2c(OC)cc3cc(C#N)ccc3c2OC)nc(Nc2ccc(C#N)cc2)n1.O=C(O)C(O)C(O)C(=O)O | < 1
COc1cc2cc(C#N)ccc2c(OC)c1Oc1cc(N2CCC(O)C2)nc(Nc2ccc(C#N)cc2)n1.I (configuration not stated) | < 1
COc1cc2cc(C#N)ccc2c(OC)c1Oc1cc(N)nc(Nc2ccc(C#N)cc2)n1.Cc1ccc(S(=O)(=O)O)cc1 | < 1
CCNc1cc(Oc2c(OC)cc3cc(C#N)ccc3c2OC)nc(Nc2ccc(C#N)cc2)n1.I | < 1
COc1cc2cc(C#N)ccc2c(OC)c1Oc1cc(N2CCC(O)C2)nc(Nc2ccc(C#N)cc2)n1.O=CO (configuration not stated) | < 1
CCNc1cc(Oc2c(OC)cc3cc(C#N)ccc3c2OC)nc(Nc2ccc(C#N)cc2)n1.CS(=O)(=O)O | < 1
COc1cc2cc(C#N)ccc2c(OC)c1Oc1cc(N)nc(Nc2ccc(C#N)cc2)n1.O=C(O)CC(O)(CC(=O)O)C(=O)O | < 1
COc1cc2cc(C#N)ccc2c(OC)c1Oc1cc(N2CCC(O)C2)nc(Nc2ccc(C#N)cc2)n1.O=C(O)CC(O)(CC(=O)O)C(=O)O (configuration not stated) | < 1
COc1cc2cc(C#N)ccc2c(OC)c1Oc1cc(N)nc(Nc2ccc(C#N)cc2)n1.I | < 1
CC(=O)O.CCNc1cc(Oc2c(OC)cc3cc(C#N)ccc3c2OC)nc(Nc2ccc(C#N)cc2)n1 | < 1
COc1cc2cc(C#N)ccc2c(OC)c1Oc1cc(N2CCC(O)C2)nc(Nc2ccc(C#N)cc2)n1.Cl (configuration not stated) | < 1
COc1cc2cc(C#N)ccc2c(OC)c1Oc1cc(N)nc(Nc2ccc(C#N)cc2)n1.CS(=O)(=O)O | < 1
Br.COc1cc2cc(C#N)ccc2c(OC)c1Oc1cc(N2CCC(O)C2)nc(Nc2ccc(C#N)cc2)n1 (configuration not stated) | < 1
COc1cc2cc(C#N)ccc2c(OC)c1Oc1cc(N)nc(Nc2ccc(C#N)cc2)n1.O=S(=O)(O)O | < 1
COc1cc2cc(C#N)ccc2c(OC)c1Oc1cc(N2CCC(O)C2)nc(Nc2ccc(C#N)cc2)n1.O=C(O)/C=C\C(=O)O (configuration not stated) | < 1
COc1cc2cc(C#N)ccc2c(OC)c1Oc1cc(N2CCC(O)C2)nc(Nc2ccc(C#N)cc2)n1.Cc1ccc(S(=O)(=O)O)cc1 (configuration not stated) | 6

Assay: Water solubility of compound at pH 2 at 0.1 to 10 mg by HPLC-UV analysis
Assay type: physicochemical
Settings: dose 0.1-10 mg

SMILES | solubility [µg/mL]
Br.COc1cc2cc(C#N)ccc2c(OC)c1Oc1cc(N)nc(Nc2ccc(C#N)cc2)n1 | < 1
CCNc1cc(Oc2c(OC)cc3cc(C#N)ccc3c2OC)nc(Nc2ccc(C#N)cc2)n1.O=C(O)CC(O)(CC(=O)O)C(=O)O | 1
COc1cc2cc(C#N)ccc2c(OC)c1Oc1cc(N)nc(Nc2ccc(C#N)cc2)n1.O=CO | 1
CCNc1cc(Oc2c(OC)cc3cc(C#N)ccc3c2OC)nc(Nc2ccc(C#N)cc2)n1.O=C(O)C(O)C(O)C(=O)O | 1
COc1cc2cc(C#N)ccc2c(OC)c1Oc1cc(N2CCC(O)C2)nc(Nc2ccc(C#N)cc2)n1.I (configuration not stated) | < 1
COc1cc2cc(C#N)ccc2c(OC)c1Oc1cc(N)nc(Nc2ccc(C#N)cc2)n1.Cc1ccc(S(=O)(=O)O)cc1 | 2
CCNc1cc(Oc2c(OC)cc3cc(C#N)ccc3c2OC)nc(Nc2ccc(C#N)cc2)n1.I | 1
COc1cc2cc(C#N)ccc2c(OC)c1Oc1cc(N2CCC(O)C2)nc(Nc2ccc(C#N)cc2)n1.O=CO (configuration not stated) | < 1
CCNc1cc(Oc2c(OC)cc3cc(C#N)ccc3c2OC)nc(Nc2ccc(C#N)cc2)n1.CS(=O)(=O)O | < 1
COc1cc2cc(C#N)ccc2c(OC)c1Oc1cc(N)nc(Nc2ccc(C#N)cc2)n1.O=C(O)CC(O)(CC(=O)O)C(=O)O | < 1
COc1cc2cc(C#N)ccc2c(OC)c1Oc1cc(N2CCC(O)C2)nc(Nc2ccc(C#N)cc2)n1.O=C(O)CC(O)(CC(=O)O)C(=O)O (configuration not stated) | < 1
COc1cc2cc(C#N)ccc2c(OC)c1Oc1cc(N)nc(Nc2ccc(C#N)cc2)n1.I | < 1
CC(=O)O.CCNc1cc(Oc2c(OC)cc3cc(C#N)ccc3c2OC)nc(Nc2ccc(C#N)cc2)n1 | 1
COc1cc2cc(C#N)ccc2c(OC)c1Oc1cc(N2CCC(O)C2)nc(Nc2ccc(C#N)cc2)n1.Cl (configuration not stated) | < 1
COc1cc2cc(C#N)ccc2c(OC)c1Oc1cc(N)nc(Nc2ccc(C#N)cc2)n1.CS(=O)(=O)O | 4
Br.COc1cc2cc(C#N)ccc2c(OC)c1Oc1cc(N2CCC(O)C2)nc(Nc2ccc(C#N)cc2)n1 (configuration not stated) | < 1
COc1cc2cc(C#N)ccc2c(OC)c1Oc1cc(N)nc(Nc2ccc(C#N)cc2)n1.O=S(=O)(O)O | < 1
COc1cc2cc(C#N)ccc2c(OC)c1Oc1cc(N2CCC(O)C2)nc(Nc2ccc(C#N)cc2)n1.O=C(O)/C=C\C(=O)O (configuration not stated) | < 1
COc1cc2cc(C#N)ccc2c(OC)c1Oc1cc(N2CCC(O)C2)nc(Nc2ccc(C#N)cc2)n1.Cc1ccc(S(=O)(=O)O)cc1 (configuration not stated) | 8

Assay: Water solubility of compound at pH 7.4 at 0.1 to 10 mg by HPLC-UV analysis
Assay type: physicochemical
Settings: dose 0.1-10 mg

SMILES | solubility [µg/mL]
Br.COc1cc2cc(C#N)ccc2c(OC)c1Oc1cc(N)nc(Nc2ccc(C#N)cc2)n1 | < 1
CCNc1cc(Oc2c(OC)cc3cc(C#N)ccc3c2OC)nc(Nc2ccc(C#N)cc2)n1.O=C(O)CC(O)(CC(=O)O)C(=O)O | 1
COc1cc2cc(C#N)ccc2c(OC)c1Oc1cc(N)nc(Nc2ccc(C#N)cc2)n1.O=CO | 2
CCNc1cc(Oc2c(OC)cc3cc(C#N)ccc3c2OC)nc(Nc2ccc(C#N)cc2)n1.O=C(O)C(O)C(O)C(=O)O | 29
COc1cc2cc(C#N)ccc2c(OC)c1Oc1cc(N2CCC(O)C2)nc(Nc2ccc(C#N)cc2)n1.I (configuration not stated) | 9
COc1cc2cc(C#N)ccc2c(OC)c1Oc1cc(N)nc(Nc2ccc(C#N)cc2)n1.Cc1ccc(S(=O)(=O)O)cc1 | 2
CCNc1cc(Oc2c(OC)cc3cc(C#N)ccc3c2OC)nc(Nc2ccc(C#N)cc2)n1.I | 1
COc1cc2cc(C#N)ccc2c(OC)c1Oc1cc(N2CCC(O)C2)nc(Nc2ccc(C#N)cc2)n1.O=CO (configuration not stated) | 3
CCNc1cc(Oc2c(OC)cc3cc(C#N)ccc3c2OC)nc(Nc2ccc(C#N)cc2)n1.CS(=O)(=O)O | 1
COc1cc2cc(C#N)ccc2c(OC)c1Oc1cc(N)nc(Nc2ccc(C#N)cc2)n1.O=C(O)CC(O)(CC(=O)O)C(=O)O | 4
COc1cc2cc(C#N)ccc2c(OC)c1Oc1cc(N2CCC(O)C2)nc(Nc2ccc(C#N)cc2)n1.O=C(O)CC(O)(CC(=O)O)C(=O)O (configuration not stated) | < 2
COc1cc2cc(C#N)ccc2c(OC)c1Oc1cc(N)nc(Nc2ccc(C#N)cc2)n1.I | 1
CC(=O)O.CCNc1cc(Oc2c(OC)cc3cc(C#N)ccc3c2OC)nc(Nc2ccc(C#N)cc2)n1 | 19
COc1cc2cc(C#N)ccc2c(OC)c1Oc1cc(N2CCC(O)C2)nc(Nc2ccc(C#N)cc2)n1.Cl (configuration not stated) | 2
COc1cc2cc(C#N)ccc2c(OC)c1Oc1cc(N)nc(Nc2ccc(C#N)cc2)n1.CS(=O)(=O)O | 11
Br.COc1cc2cc(C#N)ccc2c(OC)c1Oc1cc(N2CCC(O)C2)nc(Nc2ccc(C#N)cc2)n1 (configuration not stated) | < 1
COc1cc2cc(C#N)ccc2c(OC)c1Oc1cc(N)nc(Nc2ccc(C#N)cc2)n1.O=S(=O)(O)O | 72
COc1cc2cc(C#N)ccc2c(OC)c1Oc1cc(N2CCC(O)C2)nc(Nc2ccc(C#N)cc2)n1.O=C(O)/C=C\C(=O)O (configuration not stated) | 5
COc1cc2cc(C#N)ccc2c(OC)c1Oc1cc(N2CCC(O)C2)nc(Nc2ccc(C#N)cc2)n1.Cc1ccc(S(=O)(=O)O)cc1 (configuration not stated) | 13
